Our source for the T/C and Activity values is ChEMBL document CHEMBL3271974, “Synthesis of the antileukemic compound N,N(11)-[5-[bis(2-chloroethyl)amino]-1, 3-phenylene]bisurea” (J Med Chem, 1976).

Series [1] has as its system P388. As to the kind of experiment: Antitumor activity against mouse P388 cells allografted in mouse assessed as increase in survival rate at 225 mg/kg relative to control. It is filed as functional.
For series [2], the system named is Mus musculus. The series can be described thus: Toxicity in mouse allografted with mouse P388 cells at 225 mg/kg. The settings on record: in vivo. Also noted: dose 225 mg/kg. It is filed as organism-based.
Series [3] concerns P388. The series can be described thus: Antitumor activity against mouse P388 cells allografted in mouse assessed as increase in survival rate at 120 mg/kg relative to control. It is filed as functional.
Series [4] deals with Mus musculus. The series can be described thus: Toxicity in mouse allografted with mouse P388 cells at 120 mg/kg. The class given is organism-based. Also noted: dose 120 mg/kg. The settings on record: in vivo.

SMILES strings stand for the structures.

A word on the T/C: it is the ratio of treated to control. Consider `CC(=O)Nc1cc(NC(C)=O)cc(N(CCCl)CCCl)c1`, for which the T/C in series [1] was 196%. Moreover, in series [2], the Activity entry is on record as “Non-toxic”.

On to `NC(=O)Nc1cc(NC(N)=O)cc(N(CCCl)CCCl)c1`, for which the T/C in series [3] is reported as 194%. For the same compound, the Activity entry in series [4] was “Non-toxic”.
